Consider 18 compounds from patent EP4480314A1, “BENEFICIAL SALTS FOR ENHANCING BIOCONTROL EFFICACY OF FUNGAL SPORES” (priority 2023, dated 2024).

For data set [1] the following is noted: cited from earlier work.
The conditions of data set [2]: cited from earlier work. This is another data set of the same source.
The test system of a further data set is white flies. The conditions noted are these: spores of C. fumosorosea supplemented with low concentrations of the acid in the spray liquid; PCT/EP2022/086495; cited from earlier work.
Data set [3] relates to Bemisia tabaci. In words: Insecticidal activity against white flies on single-leaf cotton plants, spray application (Example 1, spores of C. javanica strain Apopka 97). It counts as in vivo. Also noted: expected control (Colby) less than the observed level of control: concentration or dose not given beside the values. The following applies: for expected control (Colby) less than the observed level of control: in composition with 1,0E+07 spores/ml C. javanica Apopka 97; for Abbott efficacy: spores 1,0E+07 s/ml, cotton, twelve days after treatment, control pure water; for White fly mortality: composition of spores and salt compared with spores alone or the salt alone.

Data set [4] has as its system Bemisia tabaci. In words: Insecticidal activity against white flies on bean plants (Phaseolus vulgaris), microsprayer application (Example 2, spores of C. javanica strain GF 511). The format is in vivo.
Method: For testing insecticidal activity against white flies, 9-day-old plants (Phaseolus vulgaris cv. Pérola) with two primary leaves grown with Oxisol (2 L) with fertilizer NPK 5-30-15 were kept in a screenhouse covered with a fine screen fabric (50 mesh). Adult-infested plants with Bemisia tabaci were shaken and placed next to pest-free bean plants (9 days old with two primary leaves) for 6 to 8h to allow oviposition. This exposure provided more than 200 eggs per leaf. Afterwards the plants were transferred to a clean and insect-free room and incubated at 25°C until hatching and development of immobile N2 nymphal stages (10 to 12 days after infestation). Per treatment, seven pots with four bean plants in the two-leave stage were used as biological replicates. The experiment was conducted in a randomized block design in five screenhouse benches, one for each repetition, with the treatments randomized within the block.
Before spraying, whitefly nymphs were checked for good coverage on the leaves and the infected plants were sprayed with the prepared solutions as detailed above. […] The amount is adjusted in function of the size of the primary leaves in order to ensure a good coverage. Afterwards, the plants are incubated under controlled conditions (30 °C and 40 % RH). Fourteen days after treatment, one plant/pot (two leaves per treatment) were destructively evaluated for insect mortality. Nymphal mortality was assessed under a dissecting stereomicroscope (Leica) at x40 magnification. For confirming the fungal infection, a small red dot was marked on the leaf next to the dead nymphs. The leaves were then incubated inside Gerbox box with a wet cotton added to the leaf petiole for four days at room temperature. The dead marked nymphs presenting sporulation (i.e., mycosed nymphs) were considered infected by the fungus.
Where [5] appears, read: Table 2, citric acid 0,05%, ammonium citrate di-basic 0,06%, potassium citrate 0,08%.
The mark [6] stands for this setting: Table 1, citric acid 0,1%, glutamic acid monosodic salt 0,08%.

≈ marks a conversion by molar mass, not a printed value.

In the case of `O=C(O)C=C(CC(=O)O)C(=O)O` [Aconitic acid], the “water solubility (g/l) at room temperature” value (“water solubility (g/l)” below) in data set [1] is 400 g/L (≈ 2300 mM). Further, the “pka(1)” value in data set [2] is given as 2,8.

Take `O=C(O)c1cccnc1C(=O)O` [Chinolinic acid]: the “water solubility (g/l)” value in data set [1] is 10 g/L (≈ 59.8 mM).

As to `O=C(O)c1cccc(C(=O)O)n1` [Dipicolinic acid], the “efficacy of this entomopathogenic fungus against white flies” value in the data set with white flies is listed as “increase the efficacy”.

For the compound `O=C(O)c1ccc(C(=O)O)nc1` [Isocinchomeronic acid], the “pka(1)” value in data set [2] was 2,31.

`O=C(O)CC(C(=O)O)C(O)C(=O)O` (stereo not shown) [Isocitric acid]: the “water solubility (g/l)” value in data set [1] was 53 g/L (≈ 276 mM).

As for `CC[C@H](C)[C@H](N)C(=O)O` [Isoleucine], the “pka(1)” value in data set [2] is 2,32.

Consider `O=C(O)c1ccnc(C(=O)O)c1` [Lutidinic acid], for which the “pka(1)” value in data set [2] was 2,17.

Consider `O=C(O)CC(O)C(=O)O` (stereo not shown) [Malic acid], for which the “water solubility (g/l)” value in data set [1] is 558 g/L (≈ 4160 mM).

As for `N[C@@H](Cc1ccccc1)C(=O)O` [Phenylalanine], the “water solubility (g/l)” value in data set [1] was above 10 g/L.

Regarding `O=C(O)c1ccccn1` [Picolinic acid], in data set [1], the “water solubility (g/l)” value was 887 g/L (≈ 7200 mM). Besides, the “pka(1)” value in data set [2] is 5,39.

As to `N[C@@H](C[SeH])C(=O)O` [Selenocysteine], the “water solubility (g/l)” value in data set [1] is 400 g/L (≈ 2380 mM).

Take `N[C@@H](Cc1c[nH]c2ccccc12)C(=O)O` [Tryptophan]: the “water solubility (g/l)” value in data set [1] is 11,4 g/l. The “pka(1)” value in data set [2] is recorded as 2,46.

With `CC(C)[C@H](N)C(=O)O` [Valine], the “pka(1)” value in data set [2] is given as 2,39.

As to `O=C(O)CCC(=O)C(=O)O` [alpha-ketoglutaric acid], the “water solubility (g/l)” value in data set [1] is 100 g/L (≈ 684 mM).

For `N.N.O=C(O)CC(O)(CC(=O)O)C(=O)O` [ammonium citrate di-basic], the “expected control (Colby) less than the observed level of control” value (“expected control” below) with Bemisia tabaci [3] (Table 2) is recorded as 27,89%. The Abbott efficacy in the data set with Bemisia tabaci [3] (setting [5]) is listed as 6,34. Further, the White fly mortality result with Bemisia tabaci [3] is “significantly and synergistically higher”.

With `O=C(O)CC(O)(CC(=O)O)C(=O)O` [citric acid, Citric acid, reference compound], the Abbott efficacy in the data set with Bemisia tabaci [4] (Table 3, spores 1,0E+07 s/ml, citric acid 0,05%, glutamic acid monosodium salt 0,08%, all with 0,05% Tween, bean plants, fourteen days after treatment, control Tween 80 (0.05% v/v)) is listed as 3.56; with Bemisia tabaci [3] (setting [6]) it was 9,86; with Bemisia tabaci [3] (setting [5]), 7,88. Further, the “efficacy of this entomopathogenic fungus against white flies” value with white flies was “increase the efficacy”. For the same compound, the “expected control” value with Bemisia tabaci [3] (Table 1) is reported as 11,63%; in the data set with Bemisia tabaci [3] (Table 2), 24,27%.

For `N[C@@H](CCC(=O)O)C(=O)[O-].[Na+]` [glutamic acid monosodic salt, glutamic acid monosodium salt], the Abbott efficacy in the data set with Bemisia tabaci [4] is recorded as 7,57; in the data set with Bemisia tabaci [3] (setting [6]) it was -0,34. The “expected control” value in the data set on Bemisia tabaci [4] is 11,03%; in the data set on Bemisia tabaci [3] (Table 1), 26,44%. For the same compound, in the data set with Bemisia tabaci [3], the White fly mortality result is “significantly and synergistically higher”.

With `O=C([O-])CC(O)(CC(=O)[O-])C(=O)[O-].[K+].[K+].[K+]` [potassium citrate], the “expected control” value in the data set on Bemisia tabaci [3] (Table 2) was 11,7%. Further, the Abbott efficacy in the data set on Bemisia tabaci [3] (setting [5]) is recorded as 1,74. The White fly mortality result in the data set with Bemisia tabaci [3] is “significantly and synergistically higher”.
